Measured values from patent publication US20130281313A1, “PROGNOSTIC AND/OR PREDICTIVE BIOMARKERS AND BIOLOGICAL APPLICATIONS THEREOF” (INSTITUT GUSTAVE ROUSSY, priority 2010, published 2013).

What was measured:
A549 cells [1] = assay: Cytofluorometric assessment of cell death (DiOC6(3)/PI co-staining); format: cell-based, human; settings: A549 cells, followed by CDDP; DiOC6(3)/PI co-staining
Description: Unless otherwise specified, chemicals were purchased from Sigma-Aldrich (St. Louis, USA), culture media and supplements for cell culture from Gibco-Invitrogen (Carlsbad, USA) and plasticware from Corning (Corning, USA). […] Orlistat (Xenical®) was obtained from Roche (Basel, Switzerland). […] Undissolved material was removed by two sequential rounds of centrifugation at 12,000 G (5 min, room temperature, RT), supernatants were collected and stored at −80° C. under protection from light until use. In low-throughput experiments, all cell lines were treated with 2.5 mM pyridoxine (PN), exception made for A549 cells that received 5 mM PN.
To avoid depleting the siRNA library of selected sequences, siRNAs for validation experiments were purchased as custom molecules from Sigma-Aldrich. For low-throughput experiments, (see below for the transfection protocols employed in the siRNA screen), siRNA were transfected in A549 cells with Oligofectamine™ reagent (Invitrogen), following the manufacturer's instructions. Transfection with a non-targeting siRNA (siUNR) was employed as a negative control condition. Forty-eight hours after transfection, siRNA-mediated target downregulation was assessed by immunoblotting (see below).
All cytofluorometric determinations were carried out a FACSCalibur or a FACScan cytofluorometer (BD Biosciences, San Jose, USA) equipped with a 70 μm nozzle.
First line statistical analysis of cytofluorometric results was performed by using the CellQuest™ software (BD Biosciences), by gating on the events characterized by normal forward scatter and side scatter parameters. Apoptosis- and cell cycle-related data were further analyzed with Microsoft Excel (Microsoft Co., Redmond, USA) and statistical significance was assessed by means of two-tailed Student's t test (p<0.05).

A549 cells [2] = assay: Transcriptome studies (mRNA microarrays); format: cell-based, human
Description: NSCLC A549 cells were treated with 100 μM CDDP, 75 μM C2-CER or 100 μM CdCl2 for 12 h, or with 50 μM CDDP, C2-CER or CdCl2 for 24 h. Thereafter, cells were collected and lysed for RNA extraction of following established procedures {de La Motte Rouge, 2007}. mRNA expression changes were quantified on G4112A 44 k Whole Human Genome Oligo Microarrays (Agilent Technologies, Santa Clara, USA), as previously reported {Castedo, 2006}. mRNA microarrays underwent standardized post-hybridization processing, image acquisition and analysis (see below) {Castedo, 2006}.
Data from microarray experiments were analyzed with the Rosetta Resolver® System (Rosetta Biosoftware, Seattle, USA). The threshold for statistical significance of probe signals (Intensity) was set at p=10^−5. […] For each mRNA, fold change (FC) was then defined as Intensitysample/Intensitycontrol when Intensitysample>Intensitycontrol, or as—(Intensitycontrol/Intensitysample) when Intensitysample<Intensitycontrol. Ratios were calculated as Intensitysample/Intensitycontrol.

[3] = 12 h, 100 μM CDDP, 75 μM C2-CER or 100 μM CdCl2, vs untreated cells
[4] = 24 h, 50 μM CDDP, C2-CER or CdCl2, vs untreated cells

For CCCCCCCCCCCCCCC(Br)C(=O)O (stereo not drawn) [2-bromopalmitate], the “epistatic interaction on CDDP-induced cell death, ZDHHC9 inhibition (2-bromopalmitate) combined with IL6R blockade (extracellular antibody)” value (A549 cells [1]) was “no significant epistatic interaction”.

With CCCCCCCCCCCCC/C=C/[C@@H](O)[C@H](CO)NC(C)=O [C2-CER, C2-ceramide] the “Fold change, ADAR (NM_001111) transcript” value (A549 cells [2]; [3]) was “n.s”, the “Fold change, ALDH7AT (NM_001182) transcript” value (A549 cells [2]; [3]) was −1.85 and the “Fold change, CD151 (NM_004357) transcript” value (A549 cells [2]; [3]) was “n.s”. The “Fold change, CLIC1 (NM_001288) transcript” value (A549 cells [2]; [3]) was “n.s”, the “Fold change, COMMO9 (NM_014186) transcript” value (A549 cells [2]; [3]) was “n.s” and the “Fold change, COX5B (NM_001802) transcript” value (A549 cells [2]; [3]) was −1.62. For the same compound, the “Fold change, COX7C (NM_001867) transcript” value (A549 cells [2]; [3]) was −1.33, the “Fold change, DHRSX (NM_145177) transcript” value (A549 cells [2]; [3]) was “n.s” and the “Fold change, EBP (NM_006579) transcript” value (A549 cells [2]; [3]) was −2.80. For the same compound, the “Fold change, EEF2 (NM_001901) transcript” value (A549 cells [2]; [3]) was 2.31, the “Fold change, FDXK (NM_003681) transcript” value (A549 cells [2]; [3]) was −1.89 and the “Fold change, FN3KRP (NM_024619) transcript” value (A549 cells [2]; [3]) was −1.35. For the same compound, the “Fold change, HDLBP (NM_005336) transcript” value (A549 cells [2]; [3]) was 1.69, the “Fold change, HGD (NM_000187) transcript” value (A549 cells [2]; [3]) was −2.15 and the “Fold change, IL6R (NM_000565) transcript” value (A549 cells [2]; [3]) was 2.94. For the same compound, the “Fold change, KHSRP (NM_003685) transcript” value (A549 cells [2]; [3]) was −2.29, the “Fold change, LOC389727 (NM_372092) transcript” value (A549 cells [2]; [3]) was “n.s” and the “Fold change, MAT2A (NM_005911) transcript” value (A549 cells [2]; [3]) was −3.47. For the same compound, the “Fold change, MOL1 (NM_021960) transcript” value (A549 cells [2]; [3]) was −1.35, the “Fold change, MPP6 (NM_016447) transcript” value (A549 cells [2]; [3]) was “n.s” and the “Fold change, OSTCL (NM_145303) transcript” value (A549 cells [2]; [3]) was 2.25. For the same compound, the “Fold change, P5MC5 (NM_002805) transcript” value (A549 cells [2]; [3]) was −2.20, the “Fold change, PLK1S1 (NM_018474) transcript” value (A549 cells [2]; [3]) was 1.99 and the “Fold change, PPM1J (NM_005167) transcript” value (A549 cells [2]; [3]) was “n.s”. The “Fold change, RNF26 (NM_032015) transcript” value (A549 cells [2]; [3]) was “n.s”, the “Fold change, RRAD (NM_004185) transcript” value (A549 cells [2]; [3]) was “n.s” and the “Fold change, SEMA3G (NM_000379) transcript” value (A549 cells [2]; [3]) was “n.s”. For the same compound, the “Fold change, SLC22A16AS (NM_007105) transcript” value (A549 cells [2]; [3]) was −1.40, the “Fold change, SOCS6 (NM_004232) transcript” value (A549 cells [2]; [3]) was “n.s” and the “Fold change, TMED1 (NM_006858) transcript” value (A549 cells [2]; [3]) was “n.s”. For the same compound, the “Fold change, TRIP4 (NM_016213) transcript” value (A549 cells [2]; [3]) was 1.83, the “Fold change, UBE2L3 (NM_003347) transcript” value (A549 cells [2]; [3]) was −1.48 and the “Fold change, UBE21 (NM_014176) transcript” value (A549 cells [2]; [3]) was −2.92. The “Fold change, W282 (NM_018029) transcript” value (A549 cells [2]; [3]) was “n.s”, the “Fold change, ADAR (NM_001111) transcript” value (A549 cells [2]; [4]) was −1.45 and the “Fold change, ALDH7AT (NM_001182) transcript” value (A549 cells [2]; [4]) was −1.98. For the same compound, the “Fold change, CD151 (NM_004357) transcript” value (A549 cells [2]; [4]) was “n.s”, the “Fold change, CLIC1 (NM_001288) transcript” value (A549 cells [2]; [4]) was “n.s” and the “Fold change, COMMO9 (NM_014186) transcript” value (A549 cells [2]; [4]) was “n.s”. The “Fold change, COX5B (NM_001802) transcript” value (A549 cells [2]; [4]) was −1.61, the “Fold change, COX7C (NM_001867) transcript” value (A549 cells [2]; [4]) was “n.s” and the “Fold change, DHRSX (NM_145177) transcript” value (A549 cells [2]; [4]) was “n.s”. For the same compound, the “Fold change, EBP (NM_006579) transcript” value (A549 cells [2]; [4]) was −3.16, the “Fold change, EEF2 (NM_001901) transcript” value (A549 cells [2]; [4]) was 2.62 and the “Fold change, FDXK (NM_003681) transcript” value (A549 cells [2]; [4]) was −1.91. The “Fold change, FN3KRP (NM_024619) transcript” value (A549 cells [2]; [4]) was −1.67, the “Fold change, HDLBP (NM_005336) transcript” value (A549 cells [2]; [4]) was 1.99 and the “Fold change, HGD (NM_000187) transcript” value (A549 cells [2]; [4]) was −4.23. For the same compound, the “Fold change, IL6R (NM_000565) transcript” value (A549 cells [2]; [4]) was 3.52, the “Fold change, KHSRP (NM_003685) transcript” value (A549 cells [2]; [4]) was −2.23 and the “Fold change, LOC389727 (NM_372092) transcript” value (A549 cells [2]; [4]) was “n.s”. For the same compound, the “Fold change, MAT2A (NM_005911) transcript” value (A549 cells [2]; [4]) was −2.96, the “Fold change, MOL1 (NM_021960) transcript” value (A549 cells [2]; [4]) was −1.58 and the “Fold change, MPP6 (NM_016447) transcript” value (A549 cells [2]; [4]) was “n.s”. The “Fold change, OSTCL (NM_145303) transcript” value (A549 cells [2]; [4]) was 3.08, the “Fold change, P5MC5 (NM_002805) transcript” value (A549 cells [2]; [4]) was −2.27 and the “Fold change, PLK1S1 (NM_018474) transcript” value (A549 cells [2]; [4]) was 1.93. For the same compound, the “Fold change, PPM1J (NM_005167) transcript” value (A549 cells [2]; [4]) was “n.s”, the “Fold change, RNF26 (NM_032015) transcript” value (A549 cells [2]; [4]) was −2.11 and the “Fold change, RRAD (NM_004185) transcript” value (A549 cells [2]; [4]) was 1.55. The “Fold change, SEMA3G (NM_000379) transcript” value (A549 cells [2]; [4]) was “n.s”, the “Fold change, SLC22A16AS (NM_007105) transcript” value (A549 cells [2]; [4]) was −1.60 and the “Fold change, SOCS6 (NM_004232) transcript” value (A549 cells [2]; [4]) was “n.s”. The “Fold change, TMED1 (NM_006858) transcript” value (A549 cells [2]; [4]) was “n.s”, the “Fold change, TRIP4 (NM_016213) transcript” value (A549 cells [2]; [4]) was 1.65 and the “Fold change, UBE2L3 (NM_003347) transcript” value (A549 cells [2]; [4]) was −1.47. The “Fold change, UBE21 (NM_014176) transcript” value (A549 cells [2]; [4]) was −4.38 and the “Fold change, W282 (NM_018029) transcript” value (A549 cells [2]; [4]) was “n.s”.
